Reference: patent US11224224B2, “Thiobenzoimidazole as fungicides” (REDAG CROP PROTECTION LTD, priority 2017, dated 2022)
In brackets after ≈: the same amount, converted by molar mass.

Tests used:
Format in all cases: cell-based
[1] = system: oomycete plant pathogens; assay: Fungicidal activity testing, overall summary; conditions: summary statement on Table 1
Protocol: The activity of compounds of the invention was assessed by testing against certain oomycete plant pathogens and representative data are presented in Table 1.

[2] = system: Phytophthora cactorum; assay: 96 well plate test (amended agar with spores); conditions: 96 well plate, 20, 2, 0.2 and 0.02 ppm, 1% PDA, 2 to 3 days (cells marked *), read-out: EC50 Phytophthora spp. (*96 well plate format vs. Phytophthora cactorum)
Protocol: Compounds were screened in 96 well plates with 10 compounds per plate. Each compound was screened using agar amended to 20, 2, 0.2 and 0.02 ppm, with Proline at 50 and 10 ppm and 0.2% DMSO used as controls. Each test concentration and standard was replicated twice on a plate. Compounds were screened against Phytophthora cactorum. The agar used in the test is a 1% PDA. 1000 spores/mL agar were added to the appropriate agar.
A ×10 stock solution in 2% DMSO was produced for each dose i.e. 200, 20, 2 and 0.2 ppm, and 10 μl of this added to the appropriate wells on the plate. An equivalent amount of 2% DMSO and Proline stock at 500 and 100 ppm were added for the controls. To each well 90 μl of the appropriate agar spore suspension was added to give the required final well concentrations. Plates were incubated at room temperature (18° C.) and assessed after 2 to 3 days. The amount of pathogen growth in each well was compared to the DMSO controls and an EC50 concentration was calculated. The results are provided in Table 1 in which G represents an EC50 above 20 ppm, F represents an EC50 of 1-20 ppm and E represents an EC50 less than 1 ppm.

[3] = system: Pythium ultimum; assay: Amended agar assay (PDA), colony growth; conditions: Globisporangium ultimum; 20 ppm in amended PDA, 18° C., reduction in colony growth vs control plate
Protocol: Testing was carried out on potato dextrose agar (PDA) amended with each compound at a test concentration of 20 ppm. Amended agar was poured into three replicate 9 cm petri dishes. Each replicate dish was inoculated in the centre with a 5 mm agar plug taken from the leading edge of a culture aged between 2 and 7 days old; the age of the culture was dependant on the growth rate of the pathogen being tested. The test pathogens were Pythium ultimum and Phytophthora cinnamomi. Plates were incubated at 18° C. and the diameter of each colony measured before growth on the fastest growing plate reached the plate edge. This varied between 2 and 7 days depending on the growth rate of test pathogens. The % reduction in colony growth compared to the control plate was calculated for each pathogen. The results are provided in Table 1, in which D represents no control detected at this concentration; C represents up to 50% control; B from 50 to 99% control; and A represents a control of greater than 99%, i.e. no detectable colony growth.
Alternatively, or in addition, the same assay was conducted at descending test concentrations with 5-fold dilutions typically down to 0.032 ppm though sometimes as low as 0.00026 ppm, and an EC50 (the concentration at which 50% control would be achieved) was determined. The results are provided in Table 1 in which G represents an EC50 above 20 ppm, F represents an EC50 of 1-20 ppm and E represents and EC50 less than 1 ppm.

[4] = system: Pythium ultimum; assay: Amended agar assay (PDA), colony growth; set-up: key to % control Pythium ultimum 2 ppm: D: no control detected at this concentration; C: up to 50% control; B: from 50 to 99% control; A: a control of greater than 99%, i.e. no detectable colony growth; conditions: for inhibition of growth at 2 ppm: Globisporangium ultimum, read-out: % control Pythium ultimum 2 ppm

In the case of Cn1nnnc1-n1c(SCc2nccs2)nc2ccccc21 [Example 34], the “control over the pathogens tested” value [1] is reported as “good to excellent control”, the EC50 [2] is reported as 1 to 20 µg/mL (≈ 3.04 to 60.7 µM) and the inhibition of growth at 20 ppm [3] is reported as > 99%. The inhibition of growth at 2 ppm [4] was 50 to 99%.

Compound Cn1nnnc1-n1c(SCc2cccc(NC(=O)C3CC3)n2)nc2ccccc21 [Example 35] has an EC50 [2] of 1 to 20 µg/mL (≈ 2.46 to 49.2 µM) and an inhibition of growth at 2 ppm [4] of 50 to 99%.

CCC(=O)Nc1cccc(CSc2nc3ccccc3n2-c2nnnn2C)n1 [Example 36] was tested, and the EC50 [2] was > 20 µg/mL and the inhibition of growth at 2 ppm [4] was 50 to 99%.

Cc1ccnc(CSc2nc3ccccc3n2-c2nnnn2C)c1 [Example 37] was tested, and the “control over the pathogens tested” value [1] was “good to excellent control”, the EC50 [2] was 1 to 20 µg/mL (≈ 2.96 to 59.3 µM) and the inhibition of growth at 20 ppm [3] was > 99%. For the same compound, the inhibition of growth at 2 ppm [4] was 50 to 99%.

In the case of COc1c(C)cnc(CSc2nc3ccccc3n2-c2nnnn2C)c1C [Example 38], the “control over the pathogens tested” value [1] is reported as “good to excellent control”, the EC50 [2] is reported as 1 to 20 µg/mL (≈ 2.62 to 52.4 µM) and the inhibition of growth at 2 ppm [4] is reported as > 99%.

COc1ccnc(CSc2nc3ccccc3n2-c2nnnn2C)c1OC [Example 39] was tested, and the “control over the pathogens tested” value [1] was “good to excellent control”, the EC50 [2] was 1 to 20 µg/mL (≈ 2.61 to 52.2 µM) and the inhibition of growth at 2 ppm [4] was > 99%.

In the case of COCCCOc1ccnc(CSc2nc3ccccc3n2-c2nnnn2C)c1C [Example 40], the “control over the pathogens tested” value [1] is reported as “good to excellent control”, the EC50 [2] is reported as 1 to 20 µg/mL (≈ 2.35 to 47 µM) and the inhibition of growth at 2 ppm [4] is reported as 50 to 99%.

For COc1ccnc(CSc2nc3ccccc3n2-c2nnnn2C)c1 [Example 42], the “control over the pathogens tested” value [1] was “good to excellent control”, the EC50 [2] was 1 to 20 µg/mL (≈ 2.83 to 56.6 µM) and the inhibition of growth at 2 ppm [4] was > 99%.

For Cn1nnnc1-n1c(SCc2ccncn2)nc2ccccc21 [Example 43], the EC50 [2] was > 20 µg/mL and the “% control Pythium ultimum 2 ppm” value [4] was “D”.

With Cn1nnnc1-n1c(SCc2cccc(NC(=O)C(F)(F)Oc3ccccc3)n2)nc2ccc(I)cc21 [Example 44] the EC50 [2] was > 20 µg/mL and the “% control Pythium ultimum 2 ppm” value [4] was “D”.

For Cn1nnnc1-n1c(SCc2cccc(NC(=O)COc3ccccc3)n2)nc2ccc(F)cc21 [Example 47], the “control over the pathogens tested” value [1] was “good to excellent control”, the EC50 [2] was < 1 µg/mL and the inhibition of growth at 2 ppm [4] was > 99%.

In the case of Cn1nnnc1-n1c(SCc2nccs2)nc2ccc(F)cc21 [Example 48], the “control over the pathogens tested” value [1] is reported as “good to excellent control”, the EC50 [2] is reported as 1 to 20 µg/mL (≈ 2.88 to 57.6 µM) and the inhibition of growth at 2 ppm [4] is reported as > 99%.

Clc1cncc(Cl)c1-n1c(SCc2ccccn2)nc2ccccc21 [Example 51] was tested, and the EC50 [2] was > 20 µg/mL and the “% control Pythium ultimum 2 ppm” value [4] was “D”.

In the case of CCNC(=O)CSc1nc2ccccc2n1-c1nnnn1C [Example 55], the EC50 [2] is reported as > 20 µg/mL and the inhibition of growth at 2 ppm [4] is reported as < 50%.

In the case of Cn1nnnc1-n1c(SCC(=O)N2CCOCC2)nc2ccccc21 [Example 56], the EC50 [2] is reported as > 20 µg/mL and the inhibition of growth at 2 ppm [4] is reported as < 50%.

Cn1nnnc1-n1c(SCC(=O)Nc2ccccc2)nc2ccccc21 [Example 57] was tested, and the EC50 [2] was > 20 µg/mL and the inhibition of growth at 2 ppm [4] was < 50%.

With CN(C)C(=O)CSc1nc2ccccc2n1-c1nnnn1C [Example 58] the EC50 [2] was > 20 µg/mL and the inhibition of growth at 2 ppm [4] was < 50%.

With Cn1nnnc1-n1c(Sc2ncccn2)nc2ccccc21 [Example 60, 1-(1-Methyl-1H-tetrazol-5-yl)-2-(pyrimidin-2-ylthio)-1H-benzo[d]imidazole] the EC50 [2] was > 20 µg/mL and the inhibition of growth at 2 ppm [4] was < 50%.

Cn1nnnc1-n1c(Sc2ccccn2)nc2ccccc21 [Example 61, 1-(1-Methyl-1H-tetrazol-5-yl)-2-(pyridin-2-ylthio)-1H-benzo[d]imidazole] was tested, and the EC50 [2] was > 20 µg/mL and the “% control Pythium ultimum 2 ppm” value [4] was “D”.

In the case of Cn1nnnc1-n1c(SCc2cccc(NC(=O)C3CC3)n2)nc2c(Cl)cccc21 [Example 63, N-(6-(((4-Chloro-1-(1-methyl-1H-tetrazol-5-yl)-1H-benzo[d]imidazol-2-yl)thio)methyl)pyridin-2-yl)cyclopropanecarboxamide], the “control over the pathogens tested” value [1] is reported as “good to excellent control”, the EC50 [2] is reported as 1 to 20 µg/mL (≈ 2.27 to 45.4 µM) and the inhibition of growth at 2 ppm [4] is reported as > 99%.

C#Cc1ccc2nc(SCc3ccccn3)n(-c3nnnn3C)c2c1 [Example 64, 6-Ethynyl-1-(1-methyl-1H-tetrazol-5-yl)-2-((pyridin-2-ylmethyl)thio)-1H-benzo[d]imidazole] was tested, and the EC50 [2] was > 20 µg/mL and the inhibition of growth at 2 ppm [4] was < 50%.

C#Cc1ccc2nc(SCc3cccc(NC(=O)C(F)(F)Oc4ccccc4)n3)n(-c3nnnn3C)c2c1 [Example 65, N-(6-(((6-Ethynyl-1-(1-methyl-1H-tetrazol-5-yl)-1H-benzo[d]imidazol-2-yl)thio)methyl)pyridin-2-yl)-2,2-difluoro-2-phenoxyacetamide] was tested, and the EC50 [2] was > 20 µg/mL and the inhibition of growth at 2 ppm [4] was 50 to 99%.

COc1ccnc(CSc2nc3cc(Cl)ccc3n2-c2nnnn2C)c1 [Example 66] was tested, and the “control over the pathogens tested” value [1] was “good to excellent control”, the EC50 [2] was 1 to 20 µg/mL (≈ 2.58 to 51.6 µM) and the inhibition of growth at 2 ppm [4] was > 99%.

Cn1nnnc1-n1c(SCc2ccccn2)nc2cc(Cl)ccc21 [Example 67] was tested, and the “control over the pathogens tested” value [1] was “good to excellent control”, the EC50 [2] was 1 to 20 µg/mL (≈ 2.79 to 55.9 µM) and the inhibition of growth at 2 ppm [4] was > 99%.

Cn1nnnc1-n1c(SCc2nccc3ccccc23)nc2ccccc21 [Example 68] was tested, and the EC50 [2] was > 20 µg/mL and the inhibition of growth at 2 ppm [4] was 50 to 99%.

For Cc1ccc(CSc2nc3ccccc3n2-c2nnnn2C)nc1 [Example 69], the “control over the pathogens tested” value [1] was “good to excellent control”, the EC50 [2] was 1 to 20 µg/mL (≈ 2.96 to 59.3 µM) and the inhibition of growth at 2 ppm [4] was > 99%.

Cn1nnnc1-n1c(SCc2cc(C#N)ccn2)nc2ccccc21 [Example 70] was tested, and the “control over the pathogens tested” value [1] was “good to excellent control”, the EC50 [2] was 1 to 20 µg/mL (≈ 2.87 to 57.4 µM) and the inhibition of growth at 2 ppm [4] was > 99%.

COc1cccnc1CSc1nc2ccccc2n1-c1nnnn1C [Example 71] was tested, and the EC50 [2] was > 20 µg/mL and the inhibition of growth at 2 ppm [4] was < 50%.

For Cn1nnnc1-n1c(SCc2cccc(C#N)n2)nc2ccccc21 [Example 72], the EC50 [2] was > 20 µg/mL and the “% control Pythium ultimum 2 ppm” value [4] was “D”.

COc1ccc(CSc2nc3ccccc3n2-c2nnnn2C)nc1 [Example 73] was tested, and the “control over the pathogens tested” value [1] was “good to excellent control”, the EC50 [2] was 1 to 20 µg/mL (≈ 2.83 to 56.6 µM) and the inhibition of growth at 2 ppm [4] was > 99%.

For Cn1nnnc1-n1c(SCc2ccc(C#N)cn2)nc2ccccc21 [Example 74], the EC50 [2] was > 20 µg/mL and the inhibition of growth at 2 ppm [4] was < 50%.

In the case of Cn1nnnc1-n1c(SCc2ccc(Br)cn2)nc2ccccc21 [Example 75], the “control over the pathogens tested” value [1] is reported as “good to excellent control”, the EC50 [2] is reported as 1 to 20 µg/mL (≈ 2.49 to 49.7 µM) and the inhibition of growth at 2 ppm [4] is reported as > 99%.

For Cn1nnnc1-n1c(SCc2ccc(Cl)cn2)nc2ccccc21 [Example 76], the “control over the pathogens tested” value [1] was “good to excellent control”, the EC50 [2] was 1 to 20 µg/mL (≈ 2.79 to 55.9 µM) and the inhibition of growth at 2 ppm [4] was > 99%.

In the case of Cn1nnnc1-n1c(SCc2ncc(Cl)cc2Cl)nc2ccccc21 [Example 77], the EC50 [2] is reported as > 20 µg/mL and the inhibition of growth at 2 ppm [4] is reported as 50 to 99%.

With Cn1nnnc1-n1c(SCc2cc(C(F)(F)F)ccn2)nc2ccccc21 [Example 78] the “control over the pathogens tested” value [1] was “good to excellent control”, the EC50 [2] was 1 to 20 µg/mL (≈ 2.56 to 51.1 µM) and the inhibition of growth at 2 ppm [4] was > 99%.

Cn1nnnc1-n1c(SCc2cccc(NC(=O)C3CC3)n2)nc2cccc(Cl)c21 [Example 81] was tested, and the EC50 [2] was > 20 µg/mL.

In the case of Cn1nnnc1-n1c(SCc2ccccn2)nc2cccc(Cl)c21 [Example 82], the EC50 [2] is reported as > 20 µg/mL and the inhibition of growth at 2 ppm [4] is reported as 50 to 99%.

For Cn1nnnc1-n1c(SCc2cccc(NC(=O)OC(C)(C)C)n2)nc2cccc(Cl)c21 [Example 83], the “control over the pathogens tested” value [1] was “good to excellent control”, the EC50 [2] was 1 to 20 µg/mL (≈ 2.11 to 42.3 µM) and the inhibition of growth at 2 ppm [4] was 50 to 99%.

With COc1cc(F)cc2c1nc(SCc1cccc(NC(=O)OC(C)(C)C)n1)n2-c1nnnn1C [Example 84] the “control over the pathogens tested” value [1] was “good to excellent control”, the EC50 [2] was 1 to 20 µg/mL (≈ 2.06 to 41.1 µM) and the inhibition of growth at 2 ppm [4] was > 99%.

For COc1cc(F)cc2c1nc(SCc1ccccn1)n2-c1nnnn1C [Example 85], the EC50 [2] was > 20 µg/mL and the inhibition of growth at 2 ppm [4] was > 99%.

For Cn1nnnc1-n1c(SCc2cccc(NCc3ccccc3)n2)nc2ccccc21 [Example 88, N-Benzyl-6-(((1-(1-methyl-1H-tetrazol-5-yl)-1H-benzo[d]imidazol-2-yl)thio)methyl)pyridin-2-amine], the “control over the pathogens tested” value [1] was “good to excellent control”, the EC50 [2] was < 1 µg/mL and the inhibition of growth at 2 ppm [4] was > 99%.
